Experiment: Clinical safety, Study ALZ1005
Assay type: in vivo, human
Settings: for patients with one or more TEAEs: Caucasian early AD; for Subjects with any TEAE / TEAE: Accidental overdose / TEAE: Anxiety / TEAE: Bladder cancer / TEAE: Conjunctivitis / TEAE: Dementia Alzheimer’s type / TEAE: Depressed mood / TEAE: Dermatitis allergic / TEAE: Dizziness / TEAE: Eczema vesicular / TEAE: Fatigue / TEAE: Gastrointestinal disorders / TEAE: General disorders and administration site conditions / TEAE: Headache / TEAE: Hypertension / TEAE: Infections and infestations / TEAE: Injury, poisoning and procedural complications / TEAE: Insomnia / TEAE: Irritability / TEAE: Musculoskeletal and connective tissue disorders / TEAE: Nasopharyngitis / TEAE: Nausea / TEAE: Neck pain / TEAE: Neoplasms benign, malignant and unspecified / TEAE: Nervous system disorders / TEAE: Post lumbar puncture syndrome / TEAE: Psoriasis / TEAE: Psychiatric disorders / TEAE: Renal and urinary disorders / TEAE: Renal colic / TEAE: Reproductive system and breast disorders / TEAE: Skin and subcutaneous tissue disorders / TEAE: Somnolence / TEAE: Syncope / TEAE: Urticaria / TEAE: Vascular disorders / TEAE: Vulvovaginal candidiasis / TEAE: Vulvovaginal pruritus: MCI due to AD
Procedure: Safety and tolerability were assessed during the study by recording adverse events (AEs), clinically significant abnormalities, clinical laboratory tests, ECG, and vital signs and by performing physical, neurological, and MRI examinations. All enrolled participants were included in the safety analysis population.

C[C@@]1(c2cc(NC(=O)c3ccc(C#N)cn3)ccc2F)C=CSC(N)=N1 [atabecestat]
relevant abnormal neurological finding (10 mg, one participant, day 28): mild ataxia | events considered possibly related to the study drug (50-mg group): urticaria (n = 1) | events considered probably related to the study drug (50-mg group): nausea (n = 1), dementia of Alzheimer’s type (n = 1), headache (n = 1) | tolerability (Caucasian and Japanese, 10 and 50 mg, 4 weeks): well tolerated | patients with one or more TEAEs (10-mg group, 3 of 15 patients): 20.0% | patients with one or more TEAEs (50-mg group, 8 of 16 patients): 50.0% | participants with no microhemosiderin deposits in the brain on MRI at end of treatment (Caucasian, atabecestat groups, 80.6% at baseline): 90.3% | Subjects with any TEAE (10 mg, N=10): ^2 (20.0) n (%) | TEAE: Accidental overdose (10 mg, N=10): ^1 (10.^0) n (%) | TEAE: Anxiety (10 mg, N=10): ^0 n (%) | TEAE: Bladder cancer (10 mg, N=10): ^0 n (%) | TEAE: Conjunctivitis (10 mg, N=10): ^0 n (%) | TEAE: Dementia Alzheimer’s type (10 mg, N=10): ^0 n (%) | TEAE: Depressed mood (10 mg, N=10): ^0 n (%) | TEAE: Dermatitis allergic (10 mg, N=10): ^0 n (%) | TEAE: Dizziness (10 mg, N=10): ^0 n (%) | TEAE: Eczema vesicular (10 mg, N=10): ^0 n (%) | TEAE: Fatigue (10 mg, N=10): ^0 n (%) | TEAE: Gastrointestinal disorders (10 mg, N=10): ^0 n (%) | TEAE: General disorders and administration site conditions (10 mg, N=10): ^0 n (%) | TEAE: Headache (10 mg, N=10): ^0 n (%) | TEAE: Hypertension (10 mg, N=10): ^0 n (%) | TEAE: Infections and infestations (10 mg, N=10): ^0 n (%) | TEAE: Injury, poisoning and procedural complications (10 mg, N=10): ^2 (20.0) n (%) | TEAE: Insomnia (10 mg, N=10): ^0 n (%) | TEAE: Irritability (10 mg, N=10): ^0 n (%) | TEAE: Musculoskeletal and connective tissue disorders (10 mg, N=10): ^0 n (%) | TEAE: Nasopharyngitis (10 mg, N=10): ^0 n (%) | TEAE: Nausea (10 mg, N=10): ^0 n (%) | TEAE: Neck pain (10 mg, N=10): ^0 n (%) | TEAE: Neoplasms benign, malignant and unspecified (10 mg, N=10): ^0 n (%) | TEAE: Nervous system disorders (10 mg, N=10): ^0 n (%) | TEAE: Post lumbar puncture syndrome (10 mg, N=10): ^2 (20.^0) n (%) | TEAE: Psoriasis (10 mg, N=10): ^0 n (%) | TEAE: Psychiatric disorders (10 mg, N=10): ^0 n (%) | TEAE: Renal and urinary disorders (10 mg, N=10): ^0 n (%) | TEAE: Renal colic (10 mg, N=10): ^0 n (%) | TEAE: Reproductive system and breast disorders (10 mg, N=10): ^0 n (%) | TEAE: Skin and subcutaneous tissue disorders (10 mg, N=10): ^0 n (%) | TEAE: Somnolence (10 mg, N=10): ^0 n (%) | TEAE: Syncope (10 mg, N=10): ^0 n (%) | TEAE: Urticaria (10 mg, N=10): ^0 n (%) | TEAE: Vascular disorders (10 mg, N=10): ^0 n (%) | TEAE: Vulvovaginal candidiasis (10 mg, N=10): ^0 n (%) | TEAE: Vulvovaginal pruritus (10 mg, N=10): ^0 n (%) | Subjects with any TEAE (50 mg, N=10): ^6 (60.0) n (%) | TEAE: Accidental overdose (50 mg, N=10): ^1 (10.^0) n (%) | TEAE: Anxiety (50 mg, N=10): ^1 (10.^0) n (%) | TEAE: Bladder cancer (50 mg, N=10): ^0 n (%) | TEAE: Conjunctivitis (50 mg, N=10): ^0 n (%) | TEAE: Dementia Alzheimer’s type (50 mg, N=10): ^1 (10.^0) n (%) | TEAE: Depressed mood (50 mg, N=10): ^1 (10.^0) n (%) | TEAE: Dermatitis allergic (50 mg, N=10): ^1 (10.^0) n (%) | TEAE: Dizziness (50 mg, N=10): ^0 n (%) | TEAE: Eczema vesicular (50 mg, N=10): ^1 (10.^0) n (%) | TEAE: Fatigue (50 mg, N=10): ^0 n (%) | TEAE: Gastrointestinal disorders (50 mg, N=10): ^1 (10.0) n (%) | TEAE: General disorders and administration site conditions (50 mg, N=10): ^0 n (%) | TEAE: Headache (50 mg, N=10): ^1 (10.^0) n (%) | TEAE: Hypertension (50 mg, N=10): ^0 n (%) | TEAE: Infections and infestations (50 mg, N=10): ^1 (10.^0) n (%) | TEAE: Injury, poisoning and procedural complications (50 mg, N=10): ^2 (20.^0) n (%) | TEAE: Insomnia (50 mg, N=10): ^0 n (%) | TEAE: Irritability (50 mg, N=10): ^1 (10.^0) n (%) | TEAE: Musculoskeletal and connective tissue disorders (50 mg, N=10): ^1 (10.^0) n (%) | TEAE: Nasopharyngitis (50 mg, N=10): ^0 n (%) | TEAE: Nausea (50 mg, N=10): ^1 (10·^0) n (%) | TEAE: Neck pain (50 mg, N=10): ^1 (10.^0) n (%) | TEAE: Neoplasms benign, malignant and unspecified (50 mg, N=10): ^0 n (%) | TEAE: Nervous system disorders (50 mg, N=10): ^2 (^20^.0) n (%) | TEAE: Post lumbar puncture syndrome (50 mg, N=10): ^1 (10.^0) n (%) | TEAE: Psoriasis (50 mg, N=10): ^0 n (%) | TEAE: Psychiatric disorders (50 mg, N=10): ^2 (^20^.0) n (%) | TEAE: Renal and urinary disorders (50 mg, N=10): ^1 (10.^0) n (%) | TEAE: Renal colic (50 mg, N=10): ^1 (10.^0) n (%) | TEAE: Reproductive system and breast disorders (50 mg, N=10): ^1 (10.^0) n (%) | TEAE: Skin and subcutaneous tissue disorders (50 mg, N=10): ^2 (^20^.0) n (%) | TEAE: Somnolence (50 mg, N=10): ^0 n (%) | TEAE: Syncope (50 mg, N=10): ^0 n (%) | TEAE: Urticaria (50 mg, N=10): ^0 n (%) | TEAE: Vascular disorders (50 mg, N=10): ^0 n (%) | TEAE: Vulvovaginal candidiasis (50 mg, N=10): ^1 (10.^0) n (%) | TEAE: Vulvovaginal pruritus (50 mg, N=10): ^1 (10.^0) n (%) | Subjects with any TEAE (JNJ-54861911 total, N=20): ^8 (40.0) n (%) | TEAE: Accidental overdose (JNJ-54861911 total, N=20): ^2 (10.0) n (%) | TEAE: Anxiety (JNJ-54861911 total, N=20): ^1 (5.0) n (%) | TEAE: Bladder cancer (JNJ-54861911 total, N=20): ^0 n (%) | TEAE: Conjunctivitis (JNJ-54861911 total, N=20): ^0 n (%) | TEAE: Dementia Alzheimer’s type (JNJ-54861911 total, N=20): ^1 (5.0) n (%) | TEAE: Depressed mood (JNJ-54861911 total, N=20): ^1 (5.0) n (%) | TEAE: Dermatitis allergic (JNJ-54861911 total, N=20): ^1 (5.0) n (%) | TEAE: Dizziness (JNJ-54861911 total, N=20): ^0 n (%) | TEAE: Eczema vesicular (JNJ-54861911 total, N=20): ^1 (5.0) n (%) | TEAE: Fatigue (JNJ-54861911 total, N=20): ^0 n (%) | TEAE: Gastrointestinal disorders (JNJ-54861911 total, N=20): ^1 (5.0) n (%) | TEAE: General disorders and administration site conditions (JNJ-54861911 total, N=20): ^0 n (%) | TEAE: Headache (JNJ-54861911 total, N=20): ^1 (5.0) n (%) | TEAE: Hypertension (JNJ-54861911 total, N=20): ^0 n (%) | TEAE: Infections and infestations (JNJ-54861911 total, N=20): ^1 (5.0) n (%) | TEAE: Injury, poisoning and procedural complications (JNJ-54861911 total, N=20): ^4 (20.0) n (%) | TEAE: Insomnia (JNJ-54861911 total, N=20): ^0 n (%) | TEAE: Irritability (JNJ-54861911 total, N=20): ^1 (5.0) n (%) | TEAE: Musculoskeletal and connective tissue disorders (JNJ-54861911 total, N=20): ^1 (5.0) n (%) | TEAE: Nasopharyngitis (JNJ-54861911 total, N=20): ^0 n (%) | TEAE: Nausea (JNJ-54861911 total, N=20): ^1 (5.0) n (%) | TEAE: Neck pain (JNJ-54861911 total, N=20): ^1 (5.0) n (%) | TEAE: Neoplasms benign, malignant and unspecified (JNJ-54861911 total, N=20): ^0 n (%) | TEAE: Nervous system disorders (JNJ-54861911 total, N=20): ^2 (10.0) n (%) | TEAE: Post lumbar puncture syndrome (JNJ-54861911 total, N=20): ^3 (15.0) n (%)

From paper PMC6106931 (Alzheimer's Research & Therapy, 2018)
